In PubChem BioAssay (NCI):
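In this assay, cells in 96-well plates receive the compound at five concentrations for 48 hours. Endpoints are linearly interpolated between the surrounding concentrations. The concentration for 50% growth inhibition is given as GI50. At the TGI there is no net growth.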

Key:
Test in all cases: NCI tumour cell line growth inhibition, 48 h
SW-620 colon = tested on: SW-620 colon
UO-31 renal = tested on: UO-31 renal
MOLT-4 leukemia = tested on: MOLT-4 leukemia
NCI-H460 lung = tested on: NCI-H460 lung
HCT-116 colon = tested on: HCT-116 colon
UACC-257 melanoma = tested on: UACC-257 melanoma
OVCAR-8 ovarian = tested on: OVCAR-8 ovarian
SF-268 CNS = tested on: SF-268 CNS
MALME-3M melanoma = tested on: MALME-3M melanoma
RXF 393 renal = tested on: RXF 393 renal
NCI/ADR-RES ovarian = tested on: NCI/ADR-RES ovarian
SNB-19 CNS = tested on: SNB-19 CNS
SNB-75 CNS = tested on: SNB-75 CNS
TK-10 renal = tested on: TK-10 renal
NCI-H226 lung = tested on: NCI-H226 lung
HCC-2998 colon = tested on: HCC-2998 colon
RPMI-8226 leukemia = tested on: RPMI-8226 leukemia
HOP-92 NSCLC = tested on: HOP-92 NSCLC
EKVX NSCLC = tested on: EKVX NSCLC
A498 renal = tested on: A498 renal
SF-539 CNS = tested on: SF-539 CNS
CCRF-CEM leukemia = tested on: CCRF-CEM leukemia
COLO 205 colon = tested on: COLO 205 colon
SK-OV-3 ovarian = tested on: SK-OV-3 ovarian
786-0 renal = tested on: 786-0 renal
NCI-H522 lung = tested on: NCI-H522 lung
MDA-MB-468 breast = tested on: MDA-MB-468 breast
UACC-62 melanoma = tested on: UACC-62 melanoma
OVCAR-5 ovarian = tested on: OVCAR-5 ovarian
PC-3 prostate = tested on: PC-3 prostate
MDA-MB-231 breast = tested on: MDA-MB-231 breast
BT-549 breast = tested on: BT-549 breast
HCT-15 colon = tested on: HCT-15 colon
OVCAR-4 ovarian = tested on: OVCAR-4 ovarian
SN12C renal = tested on: SN12C renal
SK-MEL-28 melanoma = tested on: SK-MEL-28 melanoma
SF-295 CNS = tested on: SF-295 CNS
NCI-H23 lung = tested on: NCI-H23 lung
HT29 colon = tested on: HT29 colon
HS 578T breast = tested on: HS 578T breast
SK-MEL-5 melanoma = tested on: SK-MEL-5 melanoma
T-47D breast = tested on: T-47D breast
DU-145 prostate = tested on: DU-145 prostate
A549 NSCLC = tested on: A549 NSCLC
OVCAR-3 ovarian = tested on: OVCAR-3 ovarian
K-562 leukemia = tested on: K-562 leukemia
IGROV1 ovarian = tested on: IGROV1 ovarian
SR leukemia = tested on: SR leukemia
HOP-62 NSCLC = tested on: HOP-62 NSCLC
ACHN renal = tested on: ACHN renal
LOX IMVI melanoma = tested on: LOX IMVI melanoma
HL-60(TB) leukemia = tested on: HL-60(TB) leukemia
MCF7 breast = tested on: MCF7 breast
M14 melanoma = tested on: M14 melanoma
KM12 colon = tested on: KM12 colon
U251 CNS = tested on: U251 CNS
CAKI-1 renal = tested on: CAKI-1 renal
MDA-MB-435 = tested on: MDA-MB-435
SK-MEL-2 melanoma = tested on: SK-MEL-2 melanoma

Structure (SMILES): O=C1CCC(N2Cc3c(C#CCCCNC(=O)c4ccc(NC(=O)[C@@H]5NC6(CCCCC6)[C@@]6(C(=O)Nc7cc(Cl)ccc76)[C@H]5c5cccc(Cl)c5F)cc4)cccc3C2=O)C(=O)N1 (stereo partly specified)
- GI50 (SW-620 colon): > 100 µM
- TGI (SW-620 colon): > 100 µM
- GI50 (UO-31 renal): 3.04 µM
- TGI (UO-31 renal): > 100 µM
- TGI (MOLT-4 leukemia): 1.43 µM
- GI50 (NCI-H460 lung): 2.09 µM
- TGI (NCI-H460 lung): > 100 µM
- GI50 (HCT-116 colon): 2.45 µM
- TGI (HCT-116 colon): > 100 µM
- GI50 (UACC-257 melanoma): 9.03 µM
- TGI (UACC-257 melanoma): > 100 µM
- GI50 (OVCAR-8 ovarian): > 100 µM
- TGI (OVCAR-8 ovarian): > 100 µM
- GI50 (SF-268 CNS): 26 µM
- TGI (SF-268 CNS): > 100 µM
- GI50 (MALME-3M melanoma): 0.159 µM
- TGI (MALME-3M melanoma): 20 µM
- GI50 (RXF 393 renal): 5.81 µM
- TGI (RXF 393 renal): > 79 µM
- GI50 (NCI/ADR-RES ovarian): > 100 µM
- TGI (NCI/ADR-RES ovarian): > 100 µM
- GI50 (SNB-19 CNS): > 50.1 µM
- TGI (SNB-19 CNS): > 100 µM
- GI50 (SNB-75 CNS): 2.5 µM
- TGI (SNB-75 CNS): > 72.1 µM
- GI50 (TK-10 renal): > 75.9 µM
- TGI (TK-10 renal): > 100 µM
- GI50 (NCI-H226 lung): 0.2 µM
- TGI (NCI-H226 lung): > 74.5 µM
- GI50 (HCC-2998 colon): 9.57 µM
- TGI (HCC-2998 colon): > 100 µM
- GI50 (RPMI-8226 leukemia): 4.16 µM
- TGI (RPMI-8226 leukemia): > 100 µM
- GI50 (HOP-92 NSCLC): 5.27 µM
- TGI (HOP-92 NSCLC): > 100 µM
- GI50 (EKVX NSCLC): 8.32 µM
- TGI (EKVX NSCLC): > 100 µM
- GI50 (A498 renal): 25.7 µM
- TGI (A498 renal): > 100 µM
- GI50 (SF-539 CNS): 12.9 µM
- TGI (SF-539 CNS): > 100 µM
- GI50 (CCRF-CEM leukemia): 11.6 µM
- TGI (CCRF-CEM leukemia): > 100 µM
- GI50 (COLO 205 colon): 72 µM
- TGI (COLO 205 colon): > 100 µM
- GI50 (SK-OV-3 ovarian): > 95.6 µM
- TGI (SK-OV-3 ovarian): > 100 µM
- GI50 (786-0 renal): 35.2 µM
- TGI (786-0 renal): > 100 µM
- GI50 (NCI-H522 lung): > 89.9 µM
- TGI (NCI-H522 lung): > 100 µM
- GI50 (MDA-MB-468 breast): 4.38 µM
- TGI (MDA-MB-468 breast): > 35.7 µM
- GI50 (UACC-62 melanoma): 0.445 µM
- TGI (UACC-62 melanoma): > 100 µM
- GI50 (OVCAR-5 ovarian): > 53.2 µM
- TGI (OVCAR-5 ovarian): > 100 µM
- GI50 (PC-3 prostate): 7.52 µM
- TGI (PC-3 prostate): > 100 µM
- GI50 (MDA-MB-231 breast): 15.4 µM
- TGI (MDA-MB-231 breast): > 100 µM
- GI50 (BT-549 breast): 13.1 µM
- TGI (BT-549 breast): > 100 µM
- GI50 (HCT-15 colon): 7.72 µM
- TGI (HCT-15 colon): > 100 µM
- GI50 (OVCAR-4 ovarian): 7.28 µM
- TGI (OVCAR-4 ovarian): 97.5 µM
- GI50 (SN12C renal): > 78.2 µM
- TGI (SN12C renal): > 100 µM
- GI50 (SK-MEL-28 melanoma): 96.8 µM
- TGI (SK-MEL-28 melanoma): > 100 µM
- GI50 (SF-295 CNS): 10.8 µM
- TGI (SF-295 CNS): > 100 µM
- GI50 (NCI-H23 lung): > 88 µM
- TGI (NCI-H23 lung): > 100 µM
- GI50 (HT29 colon): 25.2 µM
- TGI (HT29 colon): > 100 µM
- GI50 (HS 578T breast): 4.3 µM
- TGI (HS 578T breast): > 100 µM
- GI50 (SK-MEL-5 melanoma): 2.33 µM
- TGI (SK-MEL-5 melanoma): > 40.2 µM
- GI50 (T-47D breast): 6.68 µM
- TGI (T-47D breast): > 100 µM
- GI50 (DU-145 prostate): > 100 µM
- TGI (DU-145 prostate): > 100 µM
- GI50 (A549 NSCLC): 1.04 µM
- TGI (A549 NSCLC): > 100 µM
- GI50 (OVCAR-3 ovarian): 15.8 µM
- TGI (OVCAR-3 ovarian): > 100 µM
- GI50 (K-562 leukemia): 65 µM
- TGI (K-562 leukemia): > 100 µM
- GI50 (IGROV1 ovarian): 1.76 µM
- TGI (IGROV1 ovarian): > 44 µM
- GI50 (SR leukemia): 0.25 µM
- TGI (SR leukemia): 3.11 µM
- GI50 (HOP-62 NSCLC): > 100 µM
- TGI (HOP-62 NSCLC): > 100 µM
- GI50 (ACHN renal): 3.86 µM
- TGI (ACHN renal): > 100 µM
- GI50 (LOX IMVI melanoma): 0.953 µM
- TGI (LOX IMVI melanoma): > 100 µM
- GI50 (HL-60(TB) leukemia): 6.77 µM
- TGI (HL-60(TB) leukemia): > 100 µM
- TGI (MCF7 breast): > 49.8 µM
- GI50 (M14 melanoma): 75 µM
- TGI (M14 melanoma): > 100 µM
- GI50 (KM12 colon): 9.18 µM
- TGI (KM12 colon): > 100 µM
- GI50 (U251 CNS): 9.5 µM
- TGI (U251 CNS): > 100 µM
- GI50 (CAKI-1 renal): 1.2 µM
- TGI (CAKI-1 renal): > 100 µM
- GI50 (MDA-MB-435): 31.8 µM
- TGI (MDA-MB-435): > 100 µM
- GI50 (SK-MEL-2 melanoma): > 100 µM
- TGI (SK-MEL-2 melanoma): > 100 µM
